These are literature values, as cited in patent US20220370477A1, “Solid Oral Dosage Forms Of Dexamethasone” (Jubilant Generics Limited, priority 2021, published 2022).

Entries after “also recorded” stand apart in the source; their conditions may differ. Read-outs that look alike come from different tables or passages of the source.

Take `C[C@@H]1C[C@H]2[C@@H]3CCC4=CC(=O)C=C[C@]4(C)[C@@]3(F)[C@@H](O)C[C@]2(C)[C@@]1(O)C(=O)CO` [Dexamethasone, 9-fluoro-11β,17,21trihydroxy-16α-methylpregna-1,4-diene-3 ,20-dione]: the Solubility entry is, setting by setting: (in acetone) “sparingly soluble”; (in dichloromethane) “slightly soluble”; (in ethanol) “sparingly soluble”; (in methanol) “sparingly soluble”; (in water) “practically insoluble; also recorded: poorly water-soluble”.
